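Results reflect a 48-hour exposure of cells in 96-well plates to compound at five concentrations. GI50: concentration for 50% inhibition of growth. TGI denotes the concentration required for complete inhibition of growth.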
Key:
Assay in all cases: DTP human tumour cell line panel, 48 h
T-47D breast = tested on: T-47D breast
OVCAR-4 ovarian = tested on: OVCAR-4 ovarian
MOLT-4 leukemia = tested on: MOLT-4 leukemia
EKVX NSCLC = tested on: EKVX NSCLC
SR leukemia = tested on: SR leukemia
RPMI-8226 leukemia = tested on: RPMI-8226 leukemia
DU-145 prostate = tested on: DU-145 prostate
OVCAR-3 ovarian = tested on: OVCAR-3 ovarian
K-562 leukemia = tested on: K-562 leukemia
SW-620 colon = tested on: SW-620 colon
SK-MEL-28 melanoma = tested on: SK-MEL-28 melanoma
HCT-116 colon = tested on: HCT-116 colon
SNB-19 CNS = tested on: SNB-19 CNS
KM12 colon = tested on: KM12 colon
CAKI-1 renal = tested on: CAKI-1 renal
SF-268 CNS = tested on: SF-268 CNS
NCI/ADR-RES ovarian = tested on: NCI/ADR-RES ovarian
MALME-3M melanoma = tested on: MALME-3M melanoma
SK-MEL-2 melanoma = tested on: SK-MEL-2 melanoma
SN12C renal = tested on: SN12C renal
NCI-H460 lung = tested on: NCI-H460 lung
SNB-75 CNS = tested on: SNB-75 CNS
RXF 393 renal = tested on: RXF 393 renal
ACHN renal = tested on: ACHN renal
HS 578T breast = tested on: HS 578T breast
MCF7 breast = tested on: MCF7 breast
SF-539 CNS = tested on: SF-539 CNS
HCC-2998 colon = tested on: HCC-2998 colon
NCI-H522 lung = tested on: NCI-H522 lung
BT-549 breast = tested on: BT-549 breast
HT29 colon = tested on: HT29 colon
NCI-H23 lung = tested on: NCI-H23 lung
SF-295 CNS = tested on: SF-295 CNS
786-0 renal = tested on: 786-0 renal
HOP-62 NSCLC = tested on: HOP-62 NSCLC
SK-MEL-5 melanoma = tested on: SK-MEL-5 melanoma
UACC-62 melanoma = tested on: UACC-62 melanoma
CCRF-CEM leukemia = tested on: CCRF-CEM leukemia
UACC-257 melanoma = tested on: UACC-257 melanoma
M14 melanoma = tested on: M14 melanoma
NCI-H226 lung = tested on: NCI-H226 lung
HOP-92 NSCLC = tested on: HOP-92 NSCLC
U251 CNS = tested on: U251 CNS
A549 NSCLC = tested on: A549 NSCLC
HL-60(TB) leukemia = tested on: HL-60(TB) leukemia
A498 renal = tested on: A498 renal
MDA-MB-468 breast = tested on: MDA-MB-468 breast
TK-10 renal = tested on: TK-10 renal
LOX IMVI melanoma = tested on: LOX IMVI melanoma
MDA-MB-231 breast = tested on: MDA-MB-231 breast
UO-31 renal = tested on: UO-31 renal
COLO 205 colon = tested on: COLO 205 colon
MDA-MB-435 = tested on: MDA-MB-435
OVCAR-5 ovarian = tested on: OVCAR-5 ovarian
PC-3 prostate = tested on: PC-3 prostate
SK-OV-3 ovarian = tested on: SK-OV-3 ovarian
HCT-15 colon = tested on: HCT-15 colon
IGROV1 ovarian = tested on: IGROV1 ovarian
OVCAR-8 ovarian = tested on: OVCAR-8 ovarian

In the case of `O=C(NO)c1ccc(CN2CCN(c3nc(-c4ccccc4)c4ccccc4n3)CC2)cc1`, the GI50 (T-47D breast) is reported as 6.05 µM, the TGI (T-47D breast) is reported as 23.2 µM and the GI50 (OVCAR-4 ovarian) is reported as 4.3 µM. The TGI (OVCAR-4 ovarian) was over 23.7 µM, the GI50 (MOLT-4 leukemia) was 5.59 µM and the TGI (MOLT-4 leukemia) was over 23.7 µM. It also gave a GI50 (EKVX NSCLC) of 4.94 µM, a TGI (EKVX NSCLC) of 11.8 µM and a GI50 (SR leukemia) of over 23.7 µM. It also gave a TGI (SR leukemia) of over 23.7 µM, a GI50 (RPMI-8226 leukemia) of 5.6 µM and a TGI (RPMI-8226 leukemia) of over 23.7 µM. The GI50 (DU-145 prostate) was 5.63 µM, the TGI (DU-145 prostate) was 17 µM and the GI50 (OVCAR-3 ovarian) was 4.32 µM. It also gave a TGI (OVCAR-3 ovarian) of 15.1 µM, a GI50 (K-562 leukemia) of 5.8 µM and a TGI (K-562 leukemia) of over 23.7 µM. For the same compound, the GI50 (SW-620 colon) was 4.8 µM, the TGI (SW-620 colon) was 15.1 µM and the GI50 (SK-MEL-28 melanoma) was 6.83 µM. For the same compound, the TGI (SK-MEL-28 melanoma) was over 23.7 µM, the GI50 (HCT-116 colon) was 2.95 µM and the TGI (HCT-116 colon) was 20.2 µM. The GI50 (SNB-19 CNS) was 6.27 µM, the TGI (SNB-19 CNS) was over 23.7 µM and the GI50 (KM12 colon) was 7.77 µM. It also gave a TGI (KM12 colon) of over 23.7 µM, a GI50 (CAKI-1 renal) of 5.15 µM and a TGI (CAKI-1 renal) of 20.2 µM. It also gave a GI50 (SF-268 CNS) of 6.59 µM, a TGI (SF-268 CNS) of 20.7 µM and a GI50 (NCI/ADR-RES ovarian) of 3.24 µM. The TGI (NCI/ADR-RES ovarian) was 7.86 µM, the GI50 (MALME-3M melanoma) was 5.2 µM and the TGI (MALME-3M melanoma) was 18.3 µM. For the same compound, the GI50 (SK-MEL-2 melanoma) was 7.78 µM, the TGI (SK-MEL-2 melanoma) was over 23.7 µM and the GI50 (SN12C renal) was 5.65 µM. It also gave a TGI (SN12C renal) of 19.4 µM, a GI50 (NCI-H460 lung) of 3.66 µM and a TGI (NCI-H460 lung) of 8.5 µM. The GI50 (SNB-75 CNS) was 3.76 µM, the TGI (SNB-75 CNS) was over 23.7 µM and the GI50 (RXF 393 renal) was 2.9 µM. For the same compound, the TGI (RXF 393 renal) was 8.53 µM, the GI50 (ACHN renal) was 4.06 µM and the TGI (ACHN renal) was 10.2 µM. The GI50 (HS 578T breast) was 7.85 µM, the TGI (HS 578T breast) was over 23.7 µM and the GI50 (MCF7 breast) was 4.4 µM. The TGI (MCF7 breast) was 23.4 µM, the GI50 (SF-539 CNS) was 3.97 µM and the TGI (SF-539 CNS) was 7.92 µM. The GI50 (HCC-2998 colon) was 4.03 µM, the TGI (HCC-2998 colon) was 9.97 µM and the GI50 (NCI-H522 lung) was 4.57 µM. It also gave a TGI (NCI-H522 lung) of 14.1 µM, a GI50 (BT-549 breast) of 8.64 µM and a TGI (BT-549 breast) of over 23.7 µM. It also gave a GI50 (HT29 colon) of 5.75 µM, a TGI (HT29 colon) of over 23.7 µM and a GI50 (NCI-H23 lung) of 3.67 µM. The TGI (NCI-H23 lung) was 7.89 µM, the GI50 (SF-295 CNS) was 4.5 µM and the TGI (SF-295 CNS) was 11 µM. For the same compound, the GI50 (786-0 renal) was 5.81 µM, the TGI (786-0 renal) was 19.1 µM and the GI50 (HOP-62 NSCLC) was 8.88 µM. It also gave a TGI (HOP-62 NSCLC) of over 23.7 µM, a GI50 (SK-MEL-5 melanoma) of 3.67 µM and a TGI (SK-MEL-5 melanoma) of 6.91 µM. The GI50 (UACC-62 melanoma) was 3.74 µM, the TGI (UACC-62 melanoma) was 8.28 µM and the GI50 (CCRF-CEM leukemia) was 2.89 µM. For the same compound, the TGI (CCRF-CEM leukemia) was over 23.7 µM, the GI50 (UACC-257 melanoma) was 6.94 µM and the TGI (UACC-257 melanoma) was over 23.7 µM. The GI50 (M14 melanoma) was 6.26 µM, the TGI (M14 melanoma) was over 23.7 µM and the GI50 (NCI-H226 lung) was 4.09 µM. It also gave a TGI (NCI-H226 lung) of 13.3 µM, a GI50 (HOP-92 NSCLC) of 5.02 µM and a TGI (HOP-92 NSCLC) of 21.6 µM. The GI50 (U251 CNS) was 6.19 µM, the TGI (U251 CNS) was over 23.7 µM and the GI50 (A549 NSCLC) was 4.57 µM. It also gave a TGI (A549 NSCLC) of 11.5 µM, a GI50 (HL-60(TB) leukemia) of 6.99 µM and a TGI (HL-60(TB) leukemia) of over 23.7 µM. The GI50 (A498 renal) was 8.03 µM, the TGI (A498 renal) was over 23.7 µM and the GI50 (MDA-MB-468 breast) was 2.74 µM. For the same compound, the TGI (MDA-MB-468 breast) was 7.23 µM, the GI50 (TK-10 renal) was 7.04 µM and the TGI (TK-10 renal) was over 23.7 µM. It also gave a GI50 (LOX IMVI melanoma) of 2.97 µM, a TGI (LOX IMVI melanoma) of 6.12 µM and a GI50 (MDA-MB-231 breast) of 3.4 µM. It also gave a TGI (MDA-MB-231 breast) of 11 µM, a GI50 (UO-31 renal) of 3 µM and a TGI (UO-31 renal) of 7.24 µM. The GI50 (COLO 205 colon) was 5.13 µM, the TGI (COLO 205 colon) was 12.3 µM and the GI50 (MDA-MB-435) was 6.64 µM. The TGI (MDA-MB-435) was over 23.7 µM, the GI50 (OVCAR-5 ovarian) was 4.61 µM and the TGI (OVCAR-5 ovarian) was 12.4 µM. The GI50 (PC-3 prostate) was 4.18 µM, the TGI (PC-3 prostate) was over 23.7 µM and the GI50 (SK-OV-3 ovarian) was 5.61 µM. The TGI (SK-OV-3 ovarian) was 13.5 µM, the GI50 (HCT-15 colon) was 1.08 µM and the TGI (HCT-15 colon) was 7.77 µM. The GI50 (IGROV1 ovarian) was 4.55 µM, the TGI (IGROV1 ovarian) was 11 µM and the GI50 (OVCAR-8 ovarian) was 4.78 µM. The TGI (OVCAR-8 ovarian) was 12.9 µM.

Source: PubChem BioAssay (NCI)
